What was measured:
[1] = system: hyperpolarisation activated, cAMP-modulated cation current channels (HCN); conditions: cardiac conductive tissues; cited from earlier work
[2] = pharmacokinetic studies of oral cilobradine in dogs; type: in vivo
Experimental: (§1) For example, the following dosages relevant for practicing the present invention with the bradycardic agent cilobradine in cats and dogs, have been determined in appropriate pharmacokinetic studies performed by the inventors. The single oral dose of cilobradine for potent heart rate reduction in cats is 0.2-0.4 mg/kg. The single oral dose of cilobradine for potent heart rate reduction in dogs is 0.3 mg/kg. […] Peak plasma levels are reached 0.5 hours after oral administration in cats and after 1 to 2 hours in dogs.

[3] = system: cats suffering from asymptomatic HCM; experiment: clinical field study, echocardiography in cats suffering from asymptomatic HCM; type: in vivo; conditions: during treatment, days 3 and 6; orally once daily for 5 days; four cats; at baseline not possible in 2 of 4 cats
Experimental: The use according to the invention of an If channel blocker, namely cilobradine, was investigated in a clinical field study with cats suffering from asymptomatic HCM.
Four cats diagnosed as suffering from asymptomatic HCM by means of motion mode […] (left ventricular wall thickness>6 mm), received cilobradine orally once daily for 5 consecutive days. Detailed clinical examinations were conducted at baseline and on days 1, 2, 3, 6 and 9. ECG measurements were performed at baseline and on days 3 and 6 of the study.
The composition used in the experiment was as follows. • Oral solution containing 2 mg/ml cilobradine • Active ingredient added to 0.9% NaCl solution
The results of the experiment, measuring the left ventricular E to A ratios obtained at baseline and under cilobradine treatment, are shown in enclosed FIG. 1.

[4] = pharmacokinetic studies of oral cilobradine in cats; type: in vivo
Experimental: as §1

## COc1ccc(CCN2CCCC(CN3CCc4cc(OC)c(OC)cc4CC3=O)C2)cc1OC (centres unmarked) [cilobradine]
[1]
  Block of HCN channels (If current): selectively block
[2]
  Absolute bioavailability of oral formulations: 26-43%
  Single oral dose for potent heart rate reduction: 0.3 mg/kg
[3]
  Calculation of left ventricular E/A ratios: possible in all cats
[4]; after oral administration
  Time at which peak plasma levels are reached: 0.5 h
[4]; oral
  Absolute bioavailability of oral formulations: 22.6%
  Single oral dose for potent heart rate reduction: 0.2 to 0.4 mg/kg

## COc1ccc(CCN(C)CCCN2CCc3cc(OC)c(OC)cc3CC2=O)cc1OC [zatebradine]
[1]
  Block of HCN channels (If current): selectively block

From patent US20070054838A1, “METHOD FOR IMPROVING DIAGNOSTIC QUALITY IN ECHOCARDIOGRAPHY” (priority 2005, published 2007)
